Assays:
Assay in all cases: Nanosyn kinase profiling
Type in all cases: biochemical
Details in all cases: read-out: Percentage inhibition; for inhibition at 0.1 µM: 0.1 µM inhibitor; for inhibition at 1 µM: 1 µM inhibitor
[1] = target: T1, JAK3 (Homo sapiens, UniProt P52333)
T1 construct: purchased Nanosyn (enzymatic panel); SGC in-house recombinant human kinases (DSF panel); Invitrogen (ALK1-6)
T1 sequence (P52333 1-1124): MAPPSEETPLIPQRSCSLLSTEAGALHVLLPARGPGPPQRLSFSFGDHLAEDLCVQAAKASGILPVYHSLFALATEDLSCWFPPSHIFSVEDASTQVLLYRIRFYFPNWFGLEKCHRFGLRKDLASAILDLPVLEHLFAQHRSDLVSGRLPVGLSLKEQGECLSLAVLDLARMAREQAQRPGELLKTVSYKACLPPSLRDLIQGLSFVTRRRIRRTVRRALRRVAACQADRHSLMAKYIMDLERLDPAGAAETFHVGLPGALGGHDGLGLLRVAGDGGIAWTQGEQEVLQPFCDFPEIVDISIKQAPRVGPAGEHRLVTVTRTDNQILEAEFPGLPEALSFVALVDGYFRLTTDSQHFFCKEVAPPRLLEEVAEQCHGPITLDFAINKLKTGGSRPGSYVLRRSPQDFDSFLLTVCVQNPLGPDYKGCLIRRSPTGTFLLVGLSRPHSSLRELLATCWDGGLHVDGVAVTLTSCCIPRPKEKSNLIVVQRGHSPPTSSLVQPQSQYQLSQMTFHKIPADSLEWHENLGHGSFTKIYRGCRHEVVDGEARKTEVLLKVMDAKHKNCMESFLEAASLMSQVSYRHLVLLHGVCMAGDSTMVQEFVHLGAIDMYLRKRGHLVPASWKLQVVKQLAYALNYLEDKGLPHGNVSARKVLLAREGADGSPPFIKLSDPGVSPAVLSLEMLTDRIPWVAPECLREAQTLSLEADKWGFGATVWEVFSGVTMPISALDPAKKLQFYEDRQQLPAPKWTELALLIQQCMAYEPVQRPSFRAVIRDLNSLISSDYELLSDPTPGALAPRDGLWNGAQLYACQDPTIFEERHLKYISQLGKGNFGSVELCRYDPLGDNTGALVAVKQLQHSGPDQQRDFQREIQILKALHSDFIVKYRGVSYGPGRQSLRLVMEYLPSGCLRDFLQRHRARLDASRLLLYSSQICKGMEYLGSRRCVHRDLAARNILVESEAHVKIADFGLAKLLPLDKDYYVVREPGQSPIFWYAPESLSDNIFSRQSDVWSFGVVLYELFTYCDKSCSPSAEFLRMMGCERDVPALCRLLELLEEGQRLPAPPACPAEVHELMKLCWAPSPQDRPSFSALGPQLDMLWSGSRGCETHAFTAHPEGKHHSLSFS
In short: (§1)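 Percent inhibition of each kinase was measured with the inhibitor at 0.1 µM and at 1 µM, as part of a 200-kinase human selectivity panel.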

[2] = target: T2, PAK1 (Homo sapiens, UniProt Q13153)
T2 construct: purchased Nanosyn (enzymatic panel); SGC in-house recombinant human kinases (DSF panel); Invitrogen (ALK1-6)
In short: as §1

[3] = target: T3, TRKB (Homo sapiens, UniProt Q16620)
T3 construct: purchased Nanosyn (enzymatic panel); SGC in-house recombinant human kinases (DSF panel); Invitrogen (ALK1-6)
In short: as §1

[4] = target: T4, HCK (Homo sapiens, UniProt P08631)
T4 construct: purchased Nanosyn (enzymatic panel); SGC in-house recombinant human kinases (DSF panel); Invitrogen (ALK1-6)
In short: as §1

[5] = target: T5, CK1α (Homo sapiens, UniProt P48729)
T5 construct: purchased Nanosyn (enzymatic panel); SGC in-house recombinant human kinases (DSF panel); Invitrogen (ALK1-6)
In short: as §1

[6] = target: T6, LTK (Homo sapiens, UniProt P29376)
T6 construct: purchased Nanosyn (enzymatic panel); SGC in-house recombinant human kinases (DSF panel); Invitrogen (ALK1-6)
In short: as §1

[7] = target: T7, IKK-ε (Homo sapiens, UniProt Q14164)
T7 construct: purchased Nanosyn (enzymatic panel); SGC in-house recombinant human kinases (DSF panel); Invitrogen (ALK1-6)
T7 sequence (Q14164 1-716): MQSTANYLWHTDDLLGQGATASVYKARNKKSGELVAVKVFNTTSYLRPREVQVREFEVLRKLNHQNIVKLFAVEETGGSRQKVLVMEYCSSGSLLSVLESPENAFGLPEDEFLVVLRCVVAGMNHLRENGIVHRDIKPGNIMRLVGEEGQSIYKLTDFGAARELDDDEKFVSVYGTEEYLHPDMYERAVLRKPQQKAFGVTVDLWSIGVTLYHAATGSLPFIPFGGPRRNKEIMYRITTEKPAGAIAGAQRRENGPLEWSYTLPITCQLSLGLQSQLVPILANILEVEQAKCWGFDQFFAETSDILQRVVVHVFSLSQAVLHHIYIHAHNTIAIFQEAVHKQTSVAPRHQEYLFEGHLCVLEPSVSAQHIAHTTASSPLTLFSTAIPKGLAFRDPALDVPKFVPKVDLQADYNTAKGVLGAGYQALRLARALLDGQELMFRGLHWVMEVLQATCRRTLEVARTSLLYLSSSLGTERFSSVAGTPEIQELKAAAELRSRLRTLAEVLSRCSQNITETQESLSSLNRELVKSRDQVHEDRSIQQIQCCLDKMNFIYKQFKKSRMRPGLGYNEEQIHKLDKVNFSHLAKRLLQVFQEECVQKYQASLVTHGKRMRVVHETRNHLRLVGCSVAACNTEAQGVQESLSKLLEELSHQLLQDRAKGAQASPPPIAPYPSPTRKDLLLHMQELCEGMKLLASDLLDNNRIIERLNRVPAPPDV
In short: as §1

[8] = target: T8, PIM2 (Homo sapiens, UniProt Q9P1W9)
T8 construct: purchased Nanosyn (enzymatic panel); SGC in-house recombinant human kinases (DSF panel); Invitrogen (ALK1-6)
In short: as §1

[9] = target: T9, CK1γ1 (Homo sapiens, UniProt Q9HCP0)
T9 construct: purchased Nanosyn (enzymatic panel); SGC in-house recombinant human kinases (DSF panel); Invitrogen (ALK1-6)
In short: as §1

[10] = target: T10, FLT4 (Homo sapiens, UniProt P35916)
T10 construct: purchased Nanosyn (enzymatic panel); SGC in-house recombinant human kinases (DSF panel); Invitrogen (ALK1-6)
In short: as §1

[11] = target: T11, CDK2/cycA (Homo sapiens, UniProt P24941)
T11 construct: purchased Nanosyn (enzymatic panel); SGC in-house recombinant human kinases (DSF panel); Invitrogen (ALK1-6)
In short: as §1

T2 sequence (Q13153 whole entry): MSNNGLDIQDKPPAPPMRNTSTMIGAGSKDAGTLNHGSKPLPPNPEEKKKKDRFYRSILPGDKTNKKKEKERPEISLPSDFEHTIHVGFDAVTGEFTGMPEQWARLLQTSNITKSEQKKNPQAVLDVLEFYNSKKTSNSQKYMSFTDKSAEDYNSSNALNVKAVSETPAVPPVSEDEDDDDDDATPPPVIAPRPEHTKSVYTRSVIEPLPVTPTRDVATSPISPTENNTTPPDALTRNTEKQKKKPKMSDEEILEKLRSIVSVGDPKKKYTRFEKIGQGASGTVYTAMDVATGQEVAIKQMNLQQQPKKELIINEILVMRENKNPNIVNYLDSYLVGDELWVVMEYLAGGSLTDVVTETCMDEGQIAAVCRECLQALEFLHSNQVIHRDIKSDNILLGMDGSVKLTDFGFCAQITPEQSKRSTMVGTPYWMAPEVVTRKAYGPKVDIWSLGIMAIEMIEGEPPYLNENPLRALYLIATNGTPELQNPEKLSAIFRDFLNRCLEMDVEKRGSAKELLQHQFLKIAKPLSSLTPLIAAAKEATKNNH
T8 sequence (Q9P1W9 whole entry): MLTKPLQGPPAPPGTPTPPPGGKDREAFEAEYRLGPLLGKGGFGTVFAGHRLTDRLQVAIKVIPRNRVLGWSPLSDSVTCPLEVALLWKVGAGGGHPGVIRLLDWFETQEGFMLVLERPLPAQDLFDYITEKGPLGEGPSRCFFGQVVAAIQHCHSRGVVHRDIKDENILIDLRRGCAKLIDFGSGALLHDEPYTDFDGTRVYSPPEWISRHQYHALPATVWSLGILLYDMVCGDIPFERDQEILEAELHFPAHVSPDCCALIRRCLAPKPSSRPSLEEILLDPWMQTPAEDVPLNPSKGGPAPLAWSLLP
T3 sequence (Q16620 32-822): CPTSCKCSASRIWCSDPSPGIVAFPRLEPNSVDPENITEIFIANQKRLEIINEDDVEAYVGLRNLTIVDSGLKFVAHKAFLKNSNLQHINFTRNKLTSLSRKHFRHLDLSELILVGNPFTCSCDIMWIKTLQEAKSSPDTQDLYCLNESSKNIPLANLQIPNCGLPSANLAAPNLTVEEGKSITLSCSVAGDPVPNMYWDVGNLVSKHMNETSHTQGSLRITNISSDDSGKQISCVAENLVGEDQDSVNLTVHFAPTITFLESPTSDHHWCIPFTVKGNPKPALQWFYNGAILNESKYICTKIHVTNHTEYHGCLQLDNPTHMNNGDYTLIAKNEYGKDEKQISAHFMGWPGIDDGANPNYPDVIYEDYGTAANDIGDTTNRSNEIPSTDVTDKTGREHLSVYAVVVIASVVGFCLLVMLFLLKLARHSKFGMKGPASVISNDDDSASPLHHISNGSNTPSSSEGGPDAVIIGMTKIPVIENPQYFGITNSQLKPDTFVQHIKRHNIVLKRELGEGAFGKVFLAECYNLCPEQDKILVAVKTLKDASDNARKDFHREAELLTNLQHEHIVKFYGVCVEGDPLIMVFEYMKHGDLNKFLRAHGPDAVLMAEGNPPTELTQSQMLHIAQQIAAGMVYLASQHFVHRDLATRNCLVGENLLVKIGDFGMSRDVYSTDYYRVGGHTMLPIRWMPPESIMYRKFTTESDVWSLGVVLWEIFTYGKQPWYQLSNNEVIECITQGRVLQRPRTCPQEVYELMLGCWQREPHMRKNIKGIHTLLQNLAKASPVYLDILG
T9 sequence (Q9HCP0 whole entry): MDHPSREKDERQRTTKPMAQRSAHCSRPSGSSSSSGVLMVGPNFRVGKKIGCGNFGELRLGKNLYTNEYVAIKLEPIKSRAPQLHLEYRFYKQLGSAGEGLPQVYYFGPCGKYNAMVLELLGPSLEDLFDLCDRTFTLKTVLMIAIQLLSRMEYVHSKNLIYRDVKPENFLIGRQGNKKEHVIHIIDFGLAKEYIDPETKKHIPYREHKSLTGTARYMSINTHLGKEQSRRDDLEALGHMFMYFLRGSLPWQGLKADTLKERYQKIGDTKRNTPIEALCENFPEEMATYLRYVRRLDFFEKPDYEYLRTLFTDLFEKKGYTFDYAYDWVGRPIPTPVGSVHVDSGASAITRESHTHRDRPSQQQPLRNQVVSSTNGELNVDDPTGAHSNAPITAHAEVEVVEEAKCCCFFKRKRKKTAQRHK
T4 sequence (P08631 whole entry): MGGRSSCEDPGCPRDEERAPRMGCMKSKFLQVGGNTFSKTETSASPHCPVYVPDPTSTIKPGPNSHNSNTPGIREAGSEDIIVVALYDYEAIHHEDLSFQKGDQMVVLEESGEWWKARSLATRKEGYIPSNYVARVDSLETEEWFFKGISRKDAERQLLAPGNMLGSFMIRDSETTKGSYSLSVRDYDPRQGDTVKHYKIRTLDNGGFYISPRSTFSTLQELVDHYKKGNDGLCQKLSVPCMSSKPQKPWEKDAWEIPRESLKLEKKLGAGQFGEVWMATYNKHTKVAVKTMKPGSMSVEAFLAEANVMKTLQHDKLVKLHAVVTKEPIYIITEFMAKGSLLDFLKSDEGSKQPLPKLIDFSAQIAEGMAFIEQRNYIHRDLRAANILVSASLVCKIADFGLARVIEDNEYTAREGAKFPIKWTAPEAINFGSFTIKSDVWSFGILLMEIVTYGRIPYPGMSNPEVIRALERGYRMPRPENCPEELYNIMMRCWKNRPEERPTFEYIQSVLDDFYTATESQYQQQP
T6 sequence (P29376 17-864): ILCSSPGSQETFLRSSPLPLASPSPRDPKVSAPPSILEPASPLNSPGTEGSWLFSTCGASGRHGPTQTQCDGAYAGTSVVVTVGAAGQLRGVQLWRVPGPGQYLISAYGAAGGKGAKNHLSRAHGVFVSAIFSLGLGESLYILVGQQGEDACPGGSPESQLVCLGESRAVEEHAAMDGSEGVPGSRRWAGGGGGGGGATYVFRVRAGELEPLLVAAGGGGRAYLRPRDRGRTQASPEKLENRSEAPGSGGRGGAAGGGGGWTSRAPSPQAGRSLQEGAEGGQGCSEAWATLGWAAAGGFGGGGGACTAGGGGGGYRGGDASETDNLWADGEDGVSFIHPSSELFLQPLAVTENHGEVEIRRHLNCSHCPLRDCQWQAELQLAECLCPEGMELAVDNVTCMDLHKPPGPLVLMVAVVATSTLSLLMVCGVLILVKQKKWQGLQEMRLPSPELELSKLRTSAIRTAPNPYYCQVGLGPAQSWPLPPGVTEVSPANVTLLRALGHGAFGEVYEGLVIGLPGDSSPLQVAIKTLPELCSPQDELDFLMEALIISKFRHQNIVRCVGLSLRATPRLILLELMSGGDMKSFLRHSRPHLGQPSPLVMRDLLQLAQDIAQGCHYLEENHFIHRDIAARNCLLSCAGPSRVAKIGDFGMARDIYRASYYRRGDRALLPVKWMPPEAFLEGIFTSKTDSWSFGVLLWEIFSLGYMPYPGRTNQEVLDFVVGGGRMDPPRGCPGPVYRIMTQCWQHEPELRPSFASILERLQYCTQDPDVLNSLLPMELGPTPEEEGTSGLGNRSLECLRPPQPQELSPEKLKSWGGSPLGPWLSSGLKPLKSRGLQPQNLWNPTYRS
T5 sequence (P48729 whole entry): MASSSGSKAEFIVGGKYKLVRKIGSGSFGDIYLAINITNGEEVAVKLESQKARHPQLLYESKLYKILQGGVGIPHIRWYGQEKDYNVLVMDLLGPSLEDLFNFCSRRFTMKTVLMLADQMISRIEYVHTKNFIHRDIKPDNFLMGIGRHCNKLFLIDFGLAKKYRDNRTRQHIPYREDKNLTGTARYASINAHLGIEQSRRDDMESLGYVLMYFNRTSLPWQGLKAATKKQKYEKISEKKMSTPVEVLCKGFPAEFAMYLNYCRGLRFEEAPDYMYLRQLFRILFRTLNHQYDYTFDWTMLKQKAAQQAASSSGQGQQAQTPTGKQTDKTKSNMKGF

SMILES	inhibition at 0.1 µM [1]	inhibition at 1 µM [1]	inhibition at 0.1 µM [2]	inhibition at 1 µM [2]	inhibition at 0.1 µM [3]	inhibition at 1 µM [3]	inhibition at 0.1 µM [4]	inhibition at 1 µM [4]	inhibition at 0.1 µM [5]	inhibition at 1 µM [5]	inhibition at 0.1 µM [6]	inhibition at 1 µM [6]	inhibition at 0.1 µM [7]	inhibition at 1 µM [7]	inhibition at 0.1 µM [8]	inhibition at 1 µM [8]	inhibition at 0.1 µM [9]	inhibition at 1 µM [9]	inhibition at 0.1 µM [10]	inhibition at 1 µM [10]	further results
COc1cc(-c2cc(-c3cccc(O)c3)cnc2N)cc(OC)c1OC [K02288, 3-[6-amino-5-(3,4,5-trimethoxy-phenyl)-pyridin-3-yl]-phenol]	5.6%	2.3%	0%	0.6%	1.8%	3.9%	8.9%	51%	0%	7.2%	3.6%	31%	-6%	-2%	0.9%	2.3%	0%	6.1%	0.6%	1.4%	inhibition at 0.1 µM [11]: 0%; inhibition at 1 µM [11]: 0%
c1ccc2c(-c3cnn4cc(-c5ccc(N6CCNCC6)cc5)cnc34)ccnc2c1 [LDN-193189]	0%	0.1%	4.3%	4.9%	0.8%	3%	9.7%	33%	14%	56%	3.6%	4%	7.5%	7.4%	0%	0%	3.1%	14%	3.4%	13%	inhibition at 0.1 µM [11]: 1.2%; inhibition at 1 µM [11]: 4.1%
